Reference: US20260038709A1 (priority 2020, published 2026)
Where two headings read alike, the source gives them in different places.

Assays:
[1] = Boiling point; type: physicochemical
[2] = in vivo; cited from earlier work
[3] = Vapor pressure; type: physicochemical; conditions: 20° C.
[4] = Explosion limits of CF3OCFCF2 / CO2 / O2 (triangular diagram)
From the text: In this case, the straight line AB may be a straight line connecting point A and point B, the straight line BC may be a straight line connecting point B and point C, the straight line CA may be a straight line connecting point C and point A, and in the point A, (x, y, z) may be (50, 0, 50), in the point B, (x, y, z) may be (5.1, 0, 94.9), and in the point C, (x, y, z) may be (8.2, 80, 11.8). Unlike the case above, when (x, y, z) is present in the triangle ABC (explosion triangle) composed of the points A, B, and C, there may be an explosion hazard due to flammability.
In FIG. 7, the explosion limits indicate the explosion limit line, and is a line connecting the explosion limit points (filled square points). On the other hand, no ignition (hollow rectangle points) indicates a non-ignition point.
In addition, point A in the triangular diagram of FIG. 7 represents upper flammability limit (UFL), and when point A is connected to point C, which is an end point on the explosion limit line, a straight line AC, which is an expected explosion limit (expected line), is formed. […] Meanwhile, the ICR line on the triangle diagram is tangent to the explosion triangle passing through 100% of O2, and the MXC value is 9.3% (C3F6O in CO2).

[5] = Reactivity test with electrodes during dielectric strength test; conditions: room temperature, 1 atm, insulation test chamber
From the text: In this case, the reactivity test was to determine a reaction with electrodes upon testing dielectric strength for each mixing ratio of the insulating gases in an enclosed space where no external gas was not allowed to enter (insulation test chamber), at R.T. (room temperature), and at a standard atmospheric pressure of 1 atm. In this case, materials of a sphere electrode are CuCr and Wcu, and materials of a plane electrode are CuCr and SUS.

[6] = Lower flammability limit (LFL) calculation, KS B ISO 10156: 2017 combustible gas standard; conditions: mixed gas of CF3OCFCF2 and CO2, by mixing ratio of CF3OCFCF2; calculation results
From the text: Meanwhile, insulating gases used in electric devices that insulate electricity or extinguish arc are not supposed to belong to the category of combustible gases.
The calculation results of the lower flammability limit (LFL) according to the mixing ratio of the mixed gas of CF3OCFCF2 and CO2 are shown in the following table. In this case, the lower flammability limit is a concentration range in which flame propagation may take place when a combustible gas is mixed with air and ignited, expressed in volume concentration (vol %), and refers to the lowest value in this volume concentration.

[7] = Acute inhalation toxicity (LC50 4 h); type: in vivo; conditions: inhalation for 4 hours, pure gas
[8] = Acute inhalation toxicity (LC50 4 h) of mixed gas based on KS B ISO 10298: 2012; conditions: mixed gas of CF3OCFCF2 and CO2, mixing ratio mol %
Description: The mixed gas of the present invention may have a GWP of 1 or less, 0.9 or less, or 0.85 or less. In addition, the mixed gas of the present invention may have a GWP of 0.29 to 1, 0.29 to 0.9, or 0.29 to 0.85. […] In this case, a method for calculating GWP was based on Regulation (EU) NO 517/2014, and LC50, which represents lethal concentration 50% upon inhalation for 4 hours, was based one KS B ISO 10298: 2012.

Row | Structure (SMILES) | Boiling point [1] [°C] | Acute inhalation toxicity (LC50 4 h) [2] | Vapor pressure [3] [psia] | Ignition ([4]; C3F6O 8.6, CO2 82.5, O2 8.9 mol %) | Ignition ([4]; C3F6O 8.8, CO2 85.0, O2 6.2 mol %) | MXC value ([4]; C3F6O in CO2) [%] | Upper flammability limit (UFL), point A, C3F6O ([4]; CO2 0, O2 50 mol %) [mol %] | Explosion limit (LEL), C3F6O ([4]; CO2 0.0, O2 94.9 mol %) [mol %] | Explosion limit, C3F6O ([4]; CO2 30.0, O2 64.3 mol %) [mol %] | Explosion limit, C3F6O ([4]; CO2 50.0, O2 43.4 mol %) [mol %] | Explosion limit, C3F6O ([4]; CO2 60.0, O2 33.0 mol %) [mol %] | Explosion limit, C3F6O ([4]; CO2 70.0, O2 22.4 mol %) [mol %] | Explosion limit, C3F6O ([4]; CO2 80.0, O2 11.8 mol %, point of tangency of ICR line) [mol %] | Reaction with electrodes [5] | Lower flammability limit (LFL) [6] [vol %] | Acute inhalation toxicity (LC50 4 h) [7] | LC50 4 h [8]
1 | N#CC(F)(C(F)(F)F)C(F)(F)F [(CF3)2CFCN, heptafluoroisobutyronitrile] | −4.7 | 10,000-15,000 ppmv | 36.7 | – | – | – | – | – | – | – | – | – | – | – | – | – | –
2 | FC(F)=C(F)OC(F)(F)F [CF3OCFCF2, trifluoromethyl trifluorovinyl ether] | −29 | – | 70.3 | No ignition confirmed at 8.6% C3F6O | No ignition confirmed at 8.8% C3F6O | 9.3 | 50 | 5.1 | 5.7 | 6.6 | 7.0 | 7.6 | 8.2 | reacted with electrodes at atmospheric pressure to form a carbon film | 7.5 | 10,000-15,000 ppmv | 15,000 ppmv
3 | FS(F)(F)(F)(F)F [SF6] | −63.7 | – | 334 | – | – | – | – | – | – | – | – | – | – | – | – | 100,000~ ppmv | –
